Like-named read-outs stand apart in the source and are kept apart here.
Experiments:
IL-6 = assay: Anti-inflammatory assay, IL-6 in LPS-stimulated THP-1 cells (CBA); type: cell-based, human; conditions: 2 and 4 µg/mL, 24 h
Method: (§1) For this assay, THP-1 (BCRJ cód. 0234) cells were cultured in Roswell Park Memorial Institute (RPMI-1640, Sigma-Aldrich; Saint Louis, MO, USA) media supplemented with 2 mM L-glutamine, 1 mM sodium pyruvate, 1.50 g/L of sodium bicarbonate, and 10% fetal bovine serum. For obtaining Macrophage-like cells, 250,000 cells per well were plated in a 24-well cell culture plate. A total of 20 ng/mL of Forbol 12-miristato-13-acetato (PMA) was added to each well, and the cells were incubated for 48 h at 37 °C with 5% CO2. After the 48 h, the wells were washed with 1X PBS, and fresh RPMI-1640 media was added. The cells were then incubated for 24 h at 37 °C and 5% CO2. For the cell’s stimulations, after the 24 h, the well was washed with PBS and fresh RPMI1640 media without fetal bovine serum added. For the positive controls of the assay, 3 wells were stimulated with LPS (1 ng/µL) diluted in the same volume and media used for the drugs stimulation. Two different concentrations (2 and 4 µg/mL) were evaluated for each molecule, which were determined to be non-cytotoxic through a cell viability assay. After a 24 h period, the supernatant was removed and used in the cytokine quantification assay. A kit for inflammatory cytokines, BD® Cytometric Bead Array CBA Human Inflammatory, was employed for this assay, containing the following human cytokines: IL-8, IL-1β, IL-6, and TNF. […]

IL-1β = assay: Anti-inflammatory assay, IL-1β in LPS-stimulated THP-1 cells (CBA); type: cell-based, human; conditions: 2 and 4 µg/mL, 24 h
Method: as §1

HCT116 p53^+/+ cells = assay: SRB cytotoxicity assay on HCT116 p53+/+ cells; type: cell-based, human
Source text: (§2) The SCC-25 (ATCC® CRL-1628™), Detroit-562 (ATCC® CCL-138™), and THP-1 (ATCC® TIB-202™) cells were purchased from Rio de Janeiro Cell Bank (Duque de Caxias, Brazil), and NOK-si was kindly provided by Prof. Carlos Rossa from the School of Dentistry—UNESP. All the cells were cultivated according to standard conditions. Human colorectal adenocarcinoma HCT116 cell lines (ATCC® CCL-247™) expressing p53 and its p53-null isogenic derivative (HCT116 p53^−/−) were provided by B. Vogelstein (The Johns Hopkins Kimmel Cancer Center, Baltimore, MD, USA).
(§3) HCT p53^+/+ and HCT p53^−/− cell lines were seeded in 96-well plates, with a concentration of 5000 cells/well, and allowed to adhere overnight. Afterwards, they were treated with serial dilutions of the compounds for an additional 48 h (compounds were prepared at 30 mM, in DMSO, and tested with a starting concentration of 50μM and 15 μM). Cells passed then through a series of essential steps (fixation with 10% trichloroacetic acid, for 1 h at 4 °C; staining with 0.4% sulforhodamine B (SRB); wash with 1% acetic acid; and solubilization with 10 mM Tris-Base); subsequently, absorbance was measured at 510 nm in a microplate reader (Biotek Instruments Inc., Synergy, MX, USA). IC50 values were determined using GraphPad Prism software, Version 7.0 (La Jolla, CA, USA).

NOK-si cells = assay: MTT cytotoxicity assay on NOK-si normal oral keratinocytes; type: cell-based; conditions: 24 h incubation; for CC50: Keratinocyte, read-out: NOK-si IC50
Source text: as §2
(§4) Cells (NOK-si, SCC-25, and Detroit-562) were grown in a DMEM medium (Dulbecco’s Modified Eagle Medium), supplemented according to the needs of each lineage, as recommended by its cell banks, with 2 mM L-glutamine, 10% or 20% fetal bovine serum (FBS), 1% antibiotic–antimycotic solution (5 mg/mL penicillin, 5 mg/mL streptomycin, and 10 mg/mL neomycin), 4.5 g/L of glucose, and 3.7 g/L of sodium bicarbonate (NaHCO3). All cell lines were cultured in flasks at 37 °C in 5% carbon dioxide (CO2) and 95% of relative humidity. The assays were conducted between the third- and the seventh-cell passage, with sub-cultures every 3–4 days to maintain exponential growth. The cell viability was checked using the trypan blue dye exclusion assay for all experiments, where over 95% of the cells were viable at the beginning of the tests. NOK-si, SCC-25, and Detroit-562 were initially thawed and cultured in 25 cm^2 cell culture flasks. Cell growth was monitored using a microscope, and the culture medium was changed periodically. Upon reaching confluency, cell dissociation was achieved by adding 5 mL of trypsin (Sigma-Aldrich, St Louis, MO, USA) and incubating the bottles in a CO2 incubator for 10 min. Subsequently, the cells were transferred to 15 mL Falcon tubes and centrifuged at 2000 rpm for 10 min. Cell counting was performed using a Countess II FL automated cell counter (ThermoFischer, Waltham, MA, USA). The cells were seeded at a density of 30,000 cells per well in 96-well plates. The plates were then incubated at 37 °C in 5% CO2 for 24 h. Following this, test compounds were incubated for another 24 h at 10 different concentrations: 50, 25, 12.5, 6.25, 3.12, 1.56, 0.78, 0.39, 0.19, and 0.097 µg/mL. After the specified time, MTT reagent (3 mg/mL) (Sigma-Aldrich, St Louis, MO, USA) dissolved in phenol-free RPMI 1640 was added and incubated for 4 h. The formed MTT crystals were solubilized using 2-propanol P.A. (Sigma-Aldrich, St Louis, MO, USA) with agitation. Absorbance was read at 562 nm using an EZ Read 400 microplate reader (Biochrom, Cambridge, UK) and ADAP 2.0 Biochrom software (version 2.0). IC50 values and graphs were calculated using Excel and Prism software (version 10.4.1). The MTT assay results were evaluated for normality using the Shapiro–Wilk test, followed by one-way ANOVA with Tukey’s post hoc test at a significance level of 5%.

[1] = Partition coefficient (Log P), OECD 117 HPLC method
TNF = assay: Anti-inflammatory assay, TNF in LPS-stimulated THP-1 cells (CBA); type: cell-based, human; conditions: 2 and 4 µg/mL, 24 h
Method: For this assay, THP-1 (BCRJ cód. 0234) cells were cultured in Roswell Park Memorial Institute (RPMI-1640, Sigma-Aldrich; Saint Louis, MO, USA) media supplemented with 2 mM L-glutamine, 1 mM sodium pyruvate, 1.50 g/L of sodium bicarbonate, and 10% fetal bovine serum. For obtaining Macrophage-like cells, 250,000 cells per well were plated in a 24-well cell culture plate. A total of 20 ng/mL of Forbol 12-miristato-13-acetato (PMA) was added to each well, and the cells were incubated for 48 h at 37 °C with 5% CO2. After the 48 h, the wells were washed with 1X PBS, and fresh RPMI-1640 media was added. The cells were then incubated for 24 h at 37 °C and 5% CO2. For the cell’s stimulations, after the 24 h, the well was washed with PBS and fresh RPMI1640 media without fetal bovine serum added. For the positive controls of the assay, 3 wells were stimulated with LPS (1 ng/µL) diluted in the same volume and media used for the drugs stimulation. Two different concentrations (2 and 4 µg/mL) were evaluated for each molecule, which were determined to be non-cytotoxic through a cell viability assay. After a 24 h period, the supernatant was removed and used in the cytokine quantification assay. A kit for inflammatory cytokines, BD® Cytometric Bead Array CBA Human Inflammatory, was employed for this assay, containing the following human cytokines: IL-8, IL-1β, IL-6, and TNF. Standard cytokines were prepared in 9 different concentrations: 1:256, 1:128, 1:64, 1:32, 1:16, 1:8, 1:4, 1:2, and 1:1 (“top standard”). Analysis was performed using a Flow Cytometer FACS Aria Fusion BD (Bioscence, Houston, TX, USA). Data analysis was conducted using Prism software (version 10.4.1).

HCT116 p53^−/− cells = assay: SRB cytotoxicity assay on HCT116 p53-/- cells; type: cell-based, human
Source text: as §2, §3

SCC-25 cells = assay: MTT cytotoxicity assay on SCC-25 cells; type: cell-based, human; conditions: for IC50: MTT, 24 h incubation, mean SEM of three experiments; for SI = IC50 NOK-si/IC50 SCC-25: selectivity index
Source text: as §2, §4

Detroit-562 cells = assay: MTT cytotoxicity assay on Detroit-562 cells; type: cell-based; conditions: Homo sapiens; MTT, 24 h incubation, Detroit-562 metastatic pharyngeal cancer model
Source text: as §2
Cells (NOK-si, SCC-25, and Detroit-562) were grown in a DMEM medium (Dulbecco’s Modified Eagle Medium), supplemented according to the needs of each lineage, as recommended by its cell banks, with 2 mM L-glutamine, 10% or 20% fetal bovine serum (FBS), 1% antibiotic–antimycotic solution (5 mg/mL penicillin, 5 mg/mL streptomycin, and 10 mg/mL neomycin), 4.5 g/L of glucose, and 3.7 g/L of sodium bicarbonate (NaHCO3). All cell lines were cultured in flasks at 37 °C in 5% carbon dioxide (CO2) and 95% of relative humidity. The assays were conducted between the third- and the seventh-cell passage, with sub-cultures every 3–4 days to maintain exponential growth. The cell viability was checked using the trypan blue dye exclusion assay for all experiments, where over 95% of the cells were viable at the beginning of the tests. NOK-si, SCC-25, and Detroit-562 were initially thawed and cultured in 25 cm^2 cell culture flasks. Cell growth was monitored using a microscope, and the culture medium was changed periodically. […] Absorbance was read at 562 nm using an EZ Read 400 microplate reader (Biochrom, Cambridge, UK) and ADAP 2.0 Biochrom software (version 2.0). IC50 values and graphs were calculated using Excel and Prism software (version 10.4.1). The MTT assay results were evaluated for normality using the Shapiro–Wilk test, followed by one-way ANOVA with Tukey’s post hoc test at a significance level of 5%.

[2] = reference compounds for calibration curve; cited from earlier work
[3] = Homo sapiens, HCT-116, 48 h of treatment
[4] = 48 h of treatment, read-out: HCT p53^+/+ IC50
[5] = 48 h of treatment, read-out: HCT p53^−/− IC50

Row | Molecule | CC50 (NOK-si cells) [µM] | chromatographic logP [1] | IC50 (SCC-25 cells; Homo sapiens, SCC-25) [µM] | SI = IC50 NOK-si/IC50 SCC-25 (SCC-25 cells) | also measured
1 | COc1cccc(C(=O)/C=C/c2ccccc2)c1 [Compound 1] | 101.5 ± 0.17 | 3.73 | 24.9 ± 1.09 | 4.08 | reduction of IL-6 levels (IL-6): lower effectiveness; reduction of IL-1β levels (IL-1β): comparable efficacy in reducing cytokine levels relative to LPS-stimulated cells; IC50 (HCT116 p53^+/+ cells; [3]): 6.83 ± 1.15 µM; reduction of TNF levels (TNF): lower effectiveness; IC50 (HCT116 p53^−/− cells; [3]): 7.56 ± 0.4 µM
2 | O=C(/C=C/c1cccc(B(O)O)c1)c1ccccc1 [Compound 2, (E)-(3-(3-oxo-3-phenylprop-1-en-1-yl)phenyl)boronic acid] | 133 ± 3.25 | 2.68 | 134 ± 12.3 | 1.00 | IC50 (HCT116 p53^+/+ cells; [3]): 4.4 ± 0.53 µM; IC50 (HCT116 p53^−/− cells; [3]): 3.63 ± 0.47 µM
3 | Nc1cccc(C(=O)/C=C/c2cccc(B(O)O)c2)c1 [Compound 3, (E)-(3-(3-(3-aminophenyl)-3-oxoprop-1-en-1-yl)phenyl)boronic acid] | 36.2 ± 10.7 | 1.49 | 45.2 ± 13.7 |  | 
4 | O=C(/C=C/c1cccc(B(O)O)c1)c1cccc(O)c1 [Compound 4, (E)-(3-(3-(3-hydroxyphenyl)-3-oxoprop-1-en-1-yl)phenyl)boronic acid] | 18.5 ± 4.43 | 1.81 | 9.8 ± 1 | 1.88 | IC50 (HCT116 p53^+/+ cells; [3]): 2.33 ± 0.2 µM; IC50 (HCT116 p53^−/− cells; [3]): 2.16 ± 0.25 µM; IC50 (Detroit-562 cells): 31.6 ± 3.13 µM
5 | O=c1[nH]cc(F)c(=O)[nH]1 [Compound 5-FU, 5-fluorouracil, reference compound] | 1800 ± 27.7 |  | 1800 | lacked selectivity | 
6 | COc1ccc(C(=O)/C=C/c2cccc(B(O)O)c2)cc1OC [Compound 6, (E)-(3-(3-(3,4-dimethoxyphenyl)-3-oxoprop-1-en-1-yl)phenyl)boronic acid] | 20.8 ± 2.17 | 2.3 | 27.2 ± 3.84 | 0.77 | 
7 | Nc1cccc(C(=O)/C=C/c2ccc(B(O)O)cc2)c1 [Compound 9, (E)-(4-(3-(3-aminophenyl)-3-oxoprop-1-en-1-yl)phenyl)boronic acid] | 74.6 ± 15 | 1.18 | 108 ± 22.5 | 0.69 | 
8 | O=C(/C=C/c1ccc(B(O)O)cc1)c1cccc(O)c1 [Compound 10, (E)-(4-(3-(3-hydroxyphenyl)-3-oxoprop-1-en-1-yl)phenyl)boronic acid] | 25.7 ± 11.6 | 1.64 | 43.8 ± 4.43 | 0.59 | 
9 | COc1cccc(C(=O)/C=C/c2ccc(B(O)O)cc2)c1 [Compound 11, (E)-(4-(3-(3-methoxyphenyl)-3-oxoprop-1-en-1-yl)phenyl)boronic acid] | 96.2 ± 21.3 | 2.81 | 65.9 ± 11 | 1.46 | IC50 (HCT116 p53^+/+ cells; [3]): 3.96 ± 0.55 µM; IC50 (HCT116 p53^−/− cells; [3]): 3.8 ± 0.26 µM
10 | COc1ccc(C(=O)/C=C/c2ccc(B(O)O)cc2)cc1OC [Compound 12, (E)-(4-(3-(3,4-dimethoxyphenyl)-3-oxoprop-1-en-1-yl)phenyl)boronic acid] | 29.5 ± 6.08 | 2.16 | 38.4 ± 1.63 | 0.77 | 
11 | Clc1ccc(C(c2ccc(Cl)cc2)C(Cl)(Cl)Cl)cc1 [DDT] |  |  |  |  | log P of reference compounds [2]: 6.5
12 | Nc1ccccc1 [aniline] |  |  |  |  | log P of reference compounds [2]: 0.9
13 | (E)-(3-(3-(2-bromo-4-hydroxyphenyl)-3-oxoprop-1-en-1-yl)phenyl)boronic acid [Compound 7] |  |  |  | 1.31 | IC50 (HCT116 p53^+/+ cells; [4]): 3.63 ± 0.4 µM; NOK-si IC50 (NOK-si cells): 54.0 ± 10.98 µM; IC50 (HCT116 p53^−/− cells; [5]): 4.2 ± 0.35 µM; IC50 (SCC-25 cells): 41.1 ± 4.62 µM
14 | (E)-(3-(3-(2-bromo-4-methoxyphenyl)-3-oxoprop-1-en-1-yl)phenyl)boronic acid [Compound 8] |  |  |  | 0.82 | IC50 (HCT116 p53^+/+ cells; [4]): 2.06 ± 0.45 µM; NOK-si IC50 (NOK-si cells): 27.4 ± 3.05 µM; IC50 (HCT116 p53^−/− cells; [5]): 1.7 ± 0.72 µM; IC50 (SCC-25 cells): 33.4 ± 1.25 µM
